Measured values reported in US7655752B2, “TNF-α converting enzyme inhibitory agents and method of using same” (The United States of America as represented by the …, priority 2003, dated 2010).
Ends that are not written are not given here.

Assays:
[1] = system: recombinant human TACE (rhTACE); assay: TACE-mediated cleavage of rhTNFR2:Fc model substrate (SDS-PAGE, silver staining, Western blot); format: biochemical; settings: for inhibition of TACE-mediated cleavage of TNFR2:Fc: 80 μM peptide, silver staining
From the text: A model assay system was developed to assess the ability of N-TACE to inhibit TACE enzymatic activity. Recombinant human TACE (rhTACE), as well as the recombinant human TNFR1:Fc (rhTNFR1:Fc) and TNFR2:Fc (rhTNFR2:Fc) fusion proteins were purchased from R & D Systems (Minneapolis, Minn.). Both TNFR1:Fc and TNFR2:Fc are recombinant human chimeric proteins that encode the extracellular receptor domains, fused to a carboxy-terminal 6X-histidine-tagged Fc region of human IgG1 via a linker peptide (IEGRMD)(SEQ ID NO:1). Recombinant human TACE corresponds to the mature form following removal of the prodomain and has an apparent molecular weight of 70 kDa. N-TACE(18-54), which lacked the signal peptide, was synthesized by Sigma-Genosys (The Woodlands, Tex.). N-TACE truncation mutants were also synthesized; an amino-terminal mutant N-TACE(18-29) corresponded to N-TACE amino acids 18-29, a mid-domain mutant N-TACE(30-42) corresponded to N-TACE amino acids 30-42, a carboxy-terminal mutant N-TACE(43-54) corresponded to amino acids 43-54, and an extended mid-domain mutant N-TACE(30-48) corresponded to amino acids 30 to 48.
Chou Fasman analysis was performed using MacVector (Accelrys, Burlington, Mass.). Assays (50 μl) were performed in 50 mM Tris, 25 mM NaCl, pH 8.0 at 30° C. for 30 min. Samples were analyzed by SDS-PAGE using 4%-12% Bis-Tris Nupage gels (Invitrogen, Carlsbad, Calif.) and visualized with the SilverQuest Silver Staining Kit (Invitrogen, Carlsbad, Calif.). For Western blot analysis, samples were separated via SDS-PAGE, electroblotted onto nitrocellulose membranes, and incubated overnight (4° C.) with 200 ng/ml of a murine IgG1 monoclonal antibody directed against the histidine tag (Tetra-His, Qiagen, Valenica, Calif.). The antibody detected the carboxy-terminus of the recombinant human TNFR2:Fc fusion protein. A rabbit polyclonal antibody was also generated against N-TACE(18-54) (Sigma-Genosys, The Woodlands, Tex.) and was utilized for Western blotting at a 1:1000 dilution. Detection was by chemiluminescence using horseradish peroxidase-conjugated secondary antibodies.

[2] = system: TNFR2 shedding from U937 cells; assay: TNFR2 shedding from U937 cells (sandwich ELISA of soluble TNFR2 in supernatants); format: cell-based; settings: 40 μM, 24 hours
Protocol: (§1) The ability of N-TACE to inhibit TNFR2 shedding was tested in a cell-based system. U937 cells were obtained from ATCC (Manassas, Va.) and maintained in RPMI-1640 medium with 10% fetal bovine serum. For experiments, U937 cells were plated into 6 well plates at a density of 2×10^6 cells/ml. PMA was purchased from Sigma (St. Louis, Mo.). Release of TNFR2 into […] cell culture supernatants over a 24-hour period was assayed utilizing a sandwich ELISA with a sensitivity of 7.8 pg/ml (R & D Systems). Cellular apoptosis and necrosis were measured using the TACS Annexin V-FITC Apoptosis Detection Kit (R & D Systems, Minneapolis, Minn.) and a XL-MCL Flow Cytometer (Becman-Coulter, Miami, Fla.). Statistical analysis was performed by a paired Student's t test with a Bonferroni correction for multiple comparisons and by single factor ANOVA. Differences were considered significant at a P value <0.05.
(§2) The U937 monocytic cells were treated for 24 hours with either N-TACE(18-54) (0.04 to 40 μM), or a peptide corresponding to N-TACE amino acids 18-29 (40 μM). […] In contrast, N-TACE(18-29) had no effect on TNFR2 shedding as compared to cells treated with media alone (186.5±1.8 vs. 184.6±2.2, n=6, P=NS).

[3] = system: U937 cells; assay: Cellular apoptosis and necrosis (Annexin V binding and propidium iodide uptake, flow cytometry); format: cell-based
Protocol: as §1, §2

[4] = 0.5 μM rhTACE, 0.95 μM TNFR2:Fc, 30 min

Compound | inhibition of TACE-mediated cleavage of TNFR2:Fc [1, 4] | further results
CC(C)C[C@H](CC(=O)NO)C(=O)N[C@H](C(=O)N[C@@H](C)C(=O)NCCN)C(C)(C)C [TAPI-2, reference compound] |  | inhibition of TACE-mediated TNFR2 cleavage ([1]; 25 μM, 0.5 μM rhTACE, 0.95 μM TNFR2:Fc, 30 min): completely inhibited
N-TACE(18-29): amino-terminal truncation mutant corresponding to N-TACE amino acids 18-29 (PRPPDDPGFGPH) | none of the N-TACE truncation mutants (80 μM) inhibited | effect on TNFR2 shedding ([2]; compared to media alone): no effect
N-TACE(30-42): mid-domain truncation mutant corresponding to N-TACE amino acids 30-42 (QRLEKLDSLLSDY) | none of the N-TACE truncation mutants (80 μM) inhibited | 
N-TACE(30-48): extended mid-domain mutant, 19-amino acid leucine-rich peptide, amino acids 30 to 48; QRLEKLDSLLSDYDILSLS (listed as Homo sapiens) | inhibited | inhibition of TNFR2 shedding ([2]; compared to cells treated with media alone): about 16%
N-TACE(43-54): carboxy-terminal truncation mutant corresponding to amino acids 43-54 (DILSLSNIQQHS) | none of the N-TACE truncation mutants (80 μM) inhibited | 
N-TACE: 54 amino acid protein: first 54 amino acids of TACE, signal peptide plus amino-terminus of prodomain, SEQ ID NO:3 (MRQSLLFLTSVVPFVLAPRPPDDPGFGPHQRLEKLDSLLSDYDILSLSNIQQHS; listed as Homo sapiens) |  | inhibition of TACE-mediated cleavage of TNFR2:Fc (summary statement) ([1]; concentration not given): shown to inhibit
PRPPDDPGFGPHQRLEKLDSLLSDYDILSLSNIQQHS [N-TACE(18-54)] |  | apoptosis or necrosis as cause of decreased TNFR2 shedding [3]: not a consequence of either apoptosis or necrosis
vasoactive intestinal peptide (HSDAVFTDNYTRLRKQMAVKKYLNSILN) [VIP, irrelevant peptide purchased from Bachem, specificity control, reference compound] | neither α-defensin or VIP inhibited | 
